“And” between values parts separate entries of the source, which are not always exact repeats. Equal values may be shown once.

What is called IC50 is the point on the concentration scale where inhibition reaches its midpoint.

For one assay, the target named is T1, ANO1 (Homo sapiens, UniProt Q5XXA6, DEL476-501).
T1 construct: expressed in transfected cells; host or cells: Fisher rat thyroid (FRT) cells; The YFP assay uses FRT-ANO1-YFP cells, which also carry the halide sensor
T1 sequence (Q5XXA6 with tags, fused parts or gaps isoform Q5XXA6-5 DEL539-564): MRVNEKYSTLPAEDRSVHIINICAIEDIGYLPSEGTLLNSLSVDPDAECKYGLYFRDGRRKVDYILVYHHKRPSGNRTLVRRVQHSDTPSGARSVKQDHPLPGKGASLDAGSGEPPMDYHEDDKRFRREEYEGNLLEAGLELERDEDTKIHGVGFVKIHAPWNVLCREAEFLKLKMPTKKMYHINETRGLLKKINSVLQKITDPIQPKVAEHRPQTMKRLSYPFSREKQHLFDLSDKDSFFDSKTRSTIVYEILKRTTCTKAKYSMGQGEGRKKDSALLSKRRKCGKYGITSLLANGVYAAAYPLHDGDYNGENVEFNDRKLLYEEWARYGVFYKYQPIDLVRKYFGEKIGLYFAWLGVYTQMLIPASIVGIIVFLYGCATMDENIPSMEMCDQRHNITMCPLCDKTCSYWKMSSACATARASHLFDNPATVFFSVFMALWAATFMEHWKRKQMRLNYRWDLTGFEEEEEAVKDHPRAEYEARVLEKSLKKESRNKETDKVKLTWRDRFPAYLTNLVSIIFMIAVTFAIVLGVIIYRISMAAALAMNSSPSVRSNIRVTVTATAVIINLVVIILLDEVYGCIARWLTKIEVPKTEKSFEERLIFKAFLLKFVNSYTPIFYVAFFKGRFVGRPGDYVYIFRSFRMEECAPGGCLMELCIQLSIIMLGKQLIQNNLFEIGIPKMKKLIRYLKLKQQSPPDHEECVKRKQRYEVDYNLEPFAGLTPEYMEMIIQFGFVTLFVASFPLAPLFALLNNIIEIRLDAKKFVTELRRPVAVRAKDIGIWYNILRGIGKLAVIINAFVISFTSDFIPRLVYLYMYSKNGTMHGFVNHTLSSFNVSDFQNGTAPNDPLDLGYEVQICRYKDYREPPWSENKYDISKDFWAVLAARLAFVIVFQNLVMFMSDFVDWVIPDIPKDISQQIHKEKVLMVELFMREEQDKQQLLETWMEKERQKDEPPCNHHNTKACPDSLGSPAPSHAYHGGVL
The experiment in a line: Apical membrane current of ANO1 in FRT cells expressing human ANO1. It counts as cell-based. Here is the method: (A) Representative Fluo4 fluorescence traces from 3 independent experiments in FRT cells. […] (B,C) Representative apical membrane currents from 3–4 independent experiments in FRT cells expressing human ANO1. […] (D) Representative YFP fluorescence traces in FRT cells expressing human ANO2. […] (E) Representative Fluo4 fluorescence traces from 3 independent experiments in FRT cells. Cells were pretreated with DCPIB for 10 min followed by application of 100 μM ATP. (F) Representative apical membrane currents in FRT cells expressing human ANO1.
Snapwell inserts containing ANO1(abc) or CFTR-expressing FRT cells were mounted in Ussing chambers (Physiological Instruments, San Diego, CA). The basolateral hemichamber was filled with buffer solution (in mM): 120 NaCl, 5 KCl, 1 MgCl2, 1 CaCl2, 10 D-glucose, 2.5 HEPES, and 25 NaHCO3 (pH 7.4). The apical hemichamber was filled with buffer solution (in mM): 60 NaCl, 60 Na-gluconate, 5 KCl, 1 MgCl2, 1 CaCl2, 10 D-glucose, 2.5 HEPES, and 25 NaHCO3 (pH 7.4). FRT cells were bathed for a 10 min stabilization period and gassed with 5% CO2 and 95% O2 at 37 °C. The apical membrane current was recorded with an EVC4000 Multi-Channel V/I Clamp (World Precision Instruments, Sarasota, FL, USA) and a PowerLab 4/35 (AD Instruments, Castle Hill, Australia).

The target of another assay is T2, VRAC (Homo sapiens, UniProt Q8IWT6).
T2 sequence (Q8IWT6 1-810): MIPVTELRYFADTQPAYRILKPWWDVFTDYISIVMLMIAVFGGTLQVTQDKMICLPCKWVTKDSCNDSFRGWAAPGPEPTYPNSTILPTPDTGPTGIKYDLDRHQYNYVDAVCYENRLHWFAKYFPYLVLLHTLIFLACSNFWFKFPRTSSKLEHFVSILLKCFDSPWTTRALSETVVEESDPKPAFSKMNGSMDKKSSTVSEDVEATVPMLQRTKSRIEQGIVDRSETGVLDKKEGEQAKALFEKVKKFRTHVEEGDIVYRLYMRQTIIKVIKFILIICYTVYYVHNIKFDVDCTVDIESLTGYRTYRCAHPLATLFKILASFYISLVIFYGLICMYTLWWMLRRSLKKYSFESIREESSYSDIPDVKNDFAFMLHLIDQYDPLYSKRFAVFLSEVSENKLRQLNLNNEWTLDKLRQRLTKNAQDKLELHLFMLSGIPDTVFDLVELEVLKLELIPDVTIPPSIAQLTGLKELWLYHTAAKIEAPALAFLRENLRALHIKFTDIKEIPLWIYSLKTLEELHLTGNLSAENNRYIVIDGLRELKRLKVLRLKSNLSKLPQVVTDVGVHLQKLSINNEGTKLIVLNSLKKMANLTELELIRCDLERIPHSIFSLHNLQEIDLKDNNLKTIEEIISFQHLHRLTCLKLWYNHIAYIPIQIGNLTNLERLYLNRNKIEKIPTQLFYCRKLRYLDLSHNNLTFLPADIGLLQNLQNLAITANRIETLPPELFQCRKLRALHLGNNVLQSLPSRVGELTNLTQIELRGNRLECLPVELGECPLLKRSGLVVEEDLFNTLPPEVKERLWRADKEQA
Kind of assay: cell-based. To be noted: LN215 cells.

In the case of `COc1cccc(C(c2c(O)c3ccccc3oc2=O)c2c(O)c3ccccc3oc2=O)c1O` [VI-116, 3,3′-((2-hydroxy-3-methoxyphenyl)methylene)bis(4-hydroxy-2H-chromen-2-one)], the “effect on ANO1 channel activity” value at ANO1 (10 μM) was “minimal effect”. Also, the “effect on ANO1 activation by Eact (apical membrane current)” value on ANO1 (FRT cells expressing human ANO1, 3 μM Eact) is reported as “did not alter”. For the same molecule, at ANO1 (FRT cells expressing human ANO1, 100 μM ATP), the “effect on ANO1 activation by ATP (apical membrane current)” value is recorded as “did not alter”. The IC50 is 1280 nM and 1270 nM and 1300 nM against VRAC (VRAC IC50, YFP fluorescence quenching, hypotonic solution 5 min, n = 4); 6890 nM on VRAC (VRAC IC50 in the presence of 10% FBS, medium containing 10% FBS, 5 min).

The values above are taken from article PMC9103758 (International Journal of Molecular Sciences, 2022).
